Measurements reported in patent publication US10330678B2, “Methods and systems for modulating hormones and related methods, agents and compositions” (California Institute of Technology, priority 2010, dated 2019).
Structures can show the parent of a compound that is named as a salt. Where two headings read alike, the source gives them in different places.

Experiments:
NCI-H716 cells = assay: GLP-1 release from endocrine cell line NCI-H716 (GLP-1 RIA kit); assay type: cell-based
Procedure: Endocrine cell lines of NCI-H716 cells were used for testing release of GLP-1 triggered by various possible ligands.
NCI-H716 cells were incubated in serum-free DME/F12 media containing vehicle (0.01% DMSO) with a candidate ligand at the indicated concentrations. Secretion active GLP-1 in media was measured with GLP-1 RIA kit (Linco Research, Missouri, USA). The experiments for all groups have been conducted in duplicates.

hTAS2R47 = biological target: T1, hTAS2R47 (Homo sapiens, UniProt P59541); conditions: observed by Pronin et al. [Pronin 2004]; cited from earlier work
T1 sequence (P59541 1-319): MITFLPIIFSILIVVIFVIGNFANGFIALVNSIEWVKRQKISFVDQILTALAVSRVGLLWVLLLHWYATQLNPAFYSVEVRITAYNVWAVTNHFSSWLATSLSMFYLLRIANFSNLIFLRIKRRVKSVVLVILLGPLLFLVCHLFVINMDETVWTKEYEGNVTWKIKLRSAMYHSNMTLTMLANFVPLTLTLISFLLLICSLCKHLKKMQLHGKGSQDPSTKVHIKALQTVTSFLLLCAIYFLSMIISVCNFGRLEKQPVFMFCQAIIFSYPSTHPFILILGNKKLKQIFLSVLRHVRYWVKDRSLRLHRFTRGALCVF

male Sprague-Dawley rats = test system: male Sprague-Dawley rats
Procedure: The rats were then euthanized 45 min later and removed blood via intracardiac puncture and measured PYY in the blood by a recently modified radioimmunoassay using CURE antibody 9153 (Gift of J Reeve, University of California, Los Angeles.).

STC-5 cells = conditions: 30 minutes incubation, PTC at various concentrations, versus vehicle (FIGS. 24A, 24B)
Procedure: In GLP-1 release experiments, selected endocrine cell lines of STC-5 cells or NCI-H716 cells were used for testing release of GLP-1 triggered by various possible ligands. Endocrine cells were incubated in serum-free DME/F12 media containing vehicle (0.01% DMSO) and a candidate ligand of certain concentration and for a certain period of incubation time. After incubation, secretion active GLP-1 in media was measured with GLP-1 RIA kit (Linco Research®, Missouri, USA).
Secretion of active GLP-1 in media was measured with GLP-1 RIA kit (Linco Research, Missouri, USA). The experiments for all groups have been conducted in duplicates.

bitter taste = conditions: average; cited from earlier work
[1] = NCI-H716 cells, ligand concentration 10 μm, duplicates, control 58.47
[2] = summary of Table 2, versus control

| SMILES | GLP-1 (pmol/mg protein) (NCI-H716 cells; [1]) | effect on release of GLP-1 from NCI-H716 cells (in words) (NCI-H716 cells; [2]) | other results |
| --- | --- | --- | --- |
| C=CCSC [Allyl methyl sulfide] | 91.547 | increase the release of GLP-1 |  |
| COc1ccc2cc3[n+](cc2c1OC)CCc1cc2c(cc1-3)OCO2 [Berberine chloride] | 86.41 | increase the release of GLP-1 |  |
| CCCC(=O)O [Butyrate, reference compound] |  |  | GLP-1 (pmol/mg protein) (NCI-H716 cells; NCI-H716 cells, ligand concentration 2.5 mM, duplicates, control 58.47): 100.77 pmol/mg protein |
| O=C1NS(=O)(=O)c2cccc([N+](=O)[O-])c21 [Compound 4NS, 4-Nitro saccharin] |  |  | activation of hTAS2R47 (in words) (hTAS2R47): very weak inverse agonist |
| O=C1NS(=O)(=O)c2cc([N+](=O)[O-])ccc21 [Compound 6NS, 6-Nitro saccharin] |  |  | activation of hTAS2R47 (in words) (hTAS2R47): activated the receptor to a lesser extent |
| c1c2c(cc3c1OCO3)-c1cc3ccc4c(c3c[n+]1CC2)OCO4 [Coptisine chloride] | 121.35 | increase the release of GLP-1 |  |
| COc1cc(/C=C/C(=O)CC(=O)/C=C/c2ccc(O)c(OC)c2)ccc1O [Curcumin] | 61.52 |  |  |
| CC[N+](CC)(CC(=O)Nc1c(C)cccc1C)Cc1ccccc1 [Denatonium] |  |  | activation of hTAS2R47 (in words) (hTAS2R47): activated strongest |
| O=c1oc2c(O)c(O)cc3c(=O)oc4c(O)c(O)cc1c4c23 [Ellagic acid] | 77.25 | increase the release of GLP-1 |  |
| CCCCCCCCCCCC1=C(O)C(=O)C=C(O)C1=O [Embelin] | 83.55 |  |  |
| O=C(O[C@@H]1Cc2c(O)cc(O)cc2O[C@@H]1c1cc(O)c(O)c(O)c1)c1cc(O)c(O)c(O)c1 [Epigallocatechin gallate] |  | increase the release of GLP-1 | GLP-1 (pmol/mg protein) (NCI-H716 cells; NCI-H716 cells, ligand concentration 1 μm, duplicates, control 58.47): 91.15 pmol/mg protein |
| CC1(C)[C@@H](O[C@H]2O[C@H](C(=O)O)[C@@H](O)[C@H](O)[C@H]2O[C@@H]2O[C@H](C(=O)O)[C@@H](O)[C@H](O)[C@H]2O)CC[C@]2(C)[C@H]3C(=O)C=C4[C@@H]5C[C@@](C)(C(=O)O)CC[C@]5(C)CC[C@@]4(C)[C@]3(C)CC[C@@H]12 [Glycyrrhizic acid ammonium salt] | 71.95 | increase the release of GLP-1 |  |
| CC(C)=CCC[C@]1(C)[C@@H](CC=C(C)C)C[C@@]2(CC=C(C)C)C(=O)[C@]1(C(=O)C(C)C)C(=O)C(CC=C(C)C)=C2O [Hyperforin] |  | increase the release of GLP-1 | GLP-1 (pmol/mg protein) (NCI-H716 cells; NCI-H716 cells, ligand concentration 5 μg/ml, duplicates, control 58.47): 104.87 pmol/mg protein |
| NC(=S)Nc1ccccc1 [PTC, Phenylthiocarbamide] |  |  | change of PYY levels versus saline gavaged rats (in words) (male Sprague-Dawley rats; 5 mM PTC in 5 ml saline by gastric gavage, 45 min): doubling; PYY in the blood (male Sprague-Dawley rats; 5 mM PTC in 5 ml saline by gastric gavage, 45 min later, n=5, saline rats 71+/−35 pM): 154 ± 44 pM; volume of fluid remaining in the stomachs (male Sprague-Dawley rats; at sacrifice 45 min after gavage of 5 ml, saline-treated rats less than 0.5 ml): 1 to 2 mL; GLP-1 (pmol/mg protein) (NCI-H716 cells): 98.73 pmol/mg protein; effect on release of GLP-1 from NCI-H716 cells (in words) (NCI-H716 cells): increase the release of GLP-1; effect on GLP-1 release from STC-5 cells (in words) (STC-5 cells): large effect |
| CC(=O)c1c(O)c(C)c(O)c(Cc2c(O)c3c(c(C(=O)/C=C/c4ccccc4)c2O)OC(C)(C)C=C3)c1O [Rottlerin] |  | increase the release of GLP-1 | GLP-1 (pmol/mg protein) (NCI-H716 cells; NCI-H716 cells, ligand concentration 0.05%, duplicates, control 58.47): 111.18 pmol/mg protein |
| C=C[C@H]1C[N@@]2CC[C@H]1C[C@H]2[C@H](O)c1ccnc2ccc(OC)cc12 [quinine] |  |  | threshold for stimulation of bitter taste (bitter taste): 8 µM |
